Laboratory results reported in ChEMBL document CHEMBL5113380, “Functionalized quinoxalinones as privileged structures with broad-ranging pharmacological activities” (Eur J Med Chem, 2022).
≈ marks a conversion by molar mass, not a printed value.

Legend:
[1] = molecular target: T1, Glutamate receptor ionotropic AMPA (Homo sapiens, UniProt P42261+P42262+P42263+P48058); test: Displacement of [3H]AMPA from AMPA receptor (unknown origin); assay type: protein-complex assay
[2] = molecular target: Glutamate receptor ionotropic, kainate 2 (Homo sapiens, UniProt Q13002); test: Binding affinity to GluK2 receptor (unknown origin)
[3] = molecular target: T1, Glutamate receptor ionotropic AMPA; test: Binding affinity to AMPA receptor (unknown origin); assay type: protein-complex assay
[4] = molecular target: Glutamate [NMDA] receptor; test: Binding affinity to NMDA receptor (unknown origin); assay type: protein-complex assay, Homo sapiens
[5] = molecular target: Glutamate receptor 2 (Homo sapiens, UniProt P42262); test: Binding affinity to GluA2 receptor (unknown origin)
[6] = Binding affinity to KA receptor (unknown origin); parameters: species or system Homo sapiens
[7] = molecular target: Glutamate [NMDA] receptor; test: Displacement of [3H]DCKA from NMDA receptor (unknown origin); assay type: protein-complex assay, Homo sapiens
[8] = Inhibition of ALR2 (unknown origin); parameters: species or system Homo sapiens
[9] = Inhibition of ALR1 (unknown origin) relative to control; parameters: concentration or dose not given beside the values; details: Homo sapiens; concentration not given here
[10] = molecular target: Glutamate receptor ionotropic, kainate 1 (Homo sapiens, UniProt P39086); test: Binding affinity to GluK1 receptor (unknown origin)
[11] = test system: Candida albicans; test: Antifungal activity against Candida albicans; assay type: functional
[12] = test system: Escherichia coli; test: Antibacterial activity against Escherichia coli; assay type: functional
[13] = test system: Bacillus cereus; test: Antibacterial activity against Bacillus cereus; assay type: functional
[14] = test system: Pseudomonas aeruginosa; test: Antibacterial activity against Pseudomonas aeruginosa; assay type: functional
[15] = test system: Aspergillus niger; test: Antifungal activity against Aspergillus niger; assay type: functional
[16] = test system: Staphylococcus aureus; test: Antibacterial activity against Staphylococcus aureus; assay type: functional
[17] = test system: Trichophyton mentagrophytes; test: Antimicrobial activity against Trichophyton mentagrophytes; assay type: functional
[18] = Displacement of [3H]glycine from AMPA receptor (unknown origin); assay type: protein-complex assay, Homo sapiens
[19] = molecular target: Human immunodeficiency virus type 1 reverse transcriptase (Human immunodeficiency virus 1, UniProt Q72547); test: Inhibition of HIV1 reverse transcriptase
[20] = molecular target: T1, Glutamate receptor ionotropic AMPA; test: Displacement of [3H]kainic acid from AMPA receptor (unknown origin); assay type: protein-complex assay

Glutamate receptor ionotropic, kainate 2, sequence (Q13002 whole entry): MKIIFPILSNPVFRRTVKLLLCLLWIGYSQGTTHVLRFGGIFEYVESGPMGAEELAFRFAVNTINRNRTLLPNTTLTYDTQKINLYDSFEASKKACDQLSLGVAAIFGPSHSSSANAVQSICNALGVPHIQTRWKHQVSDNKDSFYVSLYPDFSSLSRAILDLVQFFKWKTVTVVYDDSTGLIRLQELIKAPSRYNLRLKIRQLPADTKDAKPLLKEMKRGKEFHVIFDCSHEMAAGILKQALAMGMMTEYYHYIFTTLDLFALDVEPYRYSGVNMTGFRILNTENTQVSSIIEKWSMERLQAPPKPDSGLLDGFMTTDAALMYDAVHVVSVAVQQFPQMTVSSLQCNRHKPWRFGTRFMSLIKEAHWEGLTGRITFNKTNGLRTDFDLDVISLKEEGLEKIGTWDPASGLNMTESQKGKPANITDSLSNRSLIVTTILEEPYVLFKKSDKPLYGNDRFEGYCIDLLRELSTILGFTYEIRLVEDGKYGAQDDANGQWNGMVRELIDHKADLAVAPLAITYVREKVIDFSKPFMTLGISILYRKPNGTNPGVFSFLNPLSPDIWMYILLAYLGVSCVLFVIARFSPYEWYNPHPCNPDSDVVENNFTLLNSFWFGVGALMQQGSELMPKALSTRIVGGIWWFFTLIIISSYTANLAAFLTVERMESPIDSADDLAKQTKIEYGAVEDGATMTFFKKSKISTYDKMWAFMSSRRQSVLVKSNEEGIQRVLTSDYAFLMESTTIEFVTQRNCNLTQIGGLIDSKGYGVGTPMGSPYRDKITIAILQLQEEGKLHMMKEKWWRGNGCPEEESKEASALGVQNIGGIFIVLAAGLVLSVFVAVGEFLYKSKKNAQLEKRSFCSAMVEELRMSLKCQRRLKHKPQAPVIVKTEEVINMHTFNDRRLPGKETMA
Glutamate receptor ionotropic, kainate 1, sequence (P39086 whole entry): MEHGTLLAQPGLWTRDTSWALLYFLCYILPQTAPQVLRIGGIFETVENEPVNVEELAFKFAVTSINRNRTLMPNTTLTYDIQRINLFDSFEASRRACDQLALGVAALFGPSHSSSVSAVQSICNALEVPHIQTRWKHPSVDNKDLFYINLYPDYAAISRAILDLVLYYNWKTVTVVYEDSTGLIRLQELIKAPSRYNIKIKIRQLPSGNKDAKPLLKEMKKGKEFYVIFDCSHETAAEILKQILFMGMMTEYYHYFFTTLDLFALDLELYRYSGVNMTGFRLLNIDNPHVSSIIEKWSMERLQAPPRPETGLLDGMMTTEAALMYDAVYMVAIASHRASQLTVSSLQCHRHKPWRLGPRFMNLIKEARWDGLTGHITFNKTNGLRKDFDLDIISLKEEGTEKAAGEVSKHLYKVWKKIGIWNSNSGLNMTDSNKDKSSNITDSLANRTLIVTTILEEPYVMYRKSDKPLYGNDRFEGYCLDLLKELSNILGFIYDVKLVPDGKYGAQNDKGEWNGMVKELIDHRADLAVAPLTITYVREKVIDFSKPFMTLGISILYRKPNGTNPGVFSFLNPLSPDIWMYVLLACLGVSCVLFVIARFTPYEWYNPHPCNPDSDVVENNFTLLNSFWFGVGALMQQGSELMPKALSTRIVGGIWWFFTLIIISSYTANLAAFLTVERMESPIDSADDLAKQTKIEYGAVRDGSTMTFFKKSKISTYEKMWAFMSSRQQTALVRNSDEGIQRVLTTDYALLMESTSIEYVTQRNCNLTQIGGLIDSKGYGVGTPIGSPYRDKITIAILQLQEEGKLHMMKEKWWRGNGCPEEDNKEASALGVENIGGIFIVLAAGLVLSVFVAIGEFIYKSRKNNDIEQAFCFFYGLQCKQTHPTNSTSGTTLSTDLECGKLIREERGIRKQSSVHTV
Glutamate receptor 2, sequence (P42262 whole entry): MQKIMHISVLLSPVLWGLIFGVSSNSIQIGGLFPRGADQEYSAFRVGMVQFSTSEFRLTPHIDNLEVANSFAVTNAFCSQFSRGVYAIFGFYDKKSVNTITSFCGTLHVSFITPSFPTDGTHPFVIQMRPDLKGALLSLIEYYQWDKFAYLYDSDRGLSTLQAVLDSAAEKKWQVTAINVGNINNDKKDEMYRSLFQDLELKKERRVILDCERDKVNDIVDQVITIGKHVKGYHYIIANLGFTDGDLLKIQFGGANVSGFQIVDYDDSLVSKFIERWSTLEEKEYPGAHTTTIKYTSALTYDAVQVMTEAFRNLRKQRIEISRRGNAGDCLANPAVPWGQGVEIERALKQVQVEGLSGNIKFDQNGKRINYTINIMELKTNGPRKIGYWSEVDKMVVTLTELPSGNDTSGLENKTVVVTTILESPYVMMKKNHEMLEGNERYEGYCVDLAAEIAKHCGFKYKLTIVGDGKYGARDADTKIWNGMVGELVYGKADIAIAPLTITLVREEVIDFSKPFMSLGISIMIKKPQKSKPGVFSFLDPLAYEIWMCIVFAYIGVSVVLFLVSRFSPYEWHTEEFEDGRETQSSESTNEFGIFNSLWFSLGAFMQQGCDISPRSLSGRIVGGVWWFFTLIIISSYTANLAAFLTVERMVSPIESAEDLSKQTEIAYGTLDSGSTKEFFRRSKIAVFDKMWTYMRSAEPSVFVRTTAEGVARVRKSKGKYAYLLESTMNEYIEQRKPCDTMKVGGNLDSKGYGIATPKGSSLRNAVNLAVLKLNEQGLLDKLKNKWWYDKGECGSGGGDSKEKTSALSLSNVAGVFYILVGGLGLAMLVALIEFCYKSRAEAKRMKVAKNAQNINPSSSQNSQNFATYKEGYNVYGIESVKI

`O=c1[nH]c2cc([N+](=O)[O-])c(-n3ccnc3)nc2n2cnnc12` gave a Ki [1] of 190 nM.

Work on `O=C(O)c1ccc(-c2ccc3[nH]c(=O)c(=O)[nH]c3c2)cc1` yielded a Ki [2] of 48000 nM, an IC50 [3] of over 100000 nM and a Ki [4] of over 100000 nM. For the same compound, the Ki [5] was over 100000 nM and the IC50 [6] was over 100000 nM.

Work on `C[C@H]1Cc2cc(Br)cc3[nH]c(=O)c(=O)n(c23)C1CC(=O)O` (stereo partly specified) yielded a Ki [7] of 3.3 nM.

For `O=C(O)Cn1c(=O)c(Oc2ccc(Br)cc2)nc2ccc(F)cc21`, the IC50 [8] was 11.4 nM and the inhibition [9] was 30.7%.

`O=C(O)Cc1cccc(-c2ccc3[nH]c(=O)c(=O)[nH]c3c2)c1` showed a Ki [2] of over 100000 nM, an IC50 [3] of over 100000 nM and a Ki [4] of 41000 nM. For the same compound, the Ki [10] was over 100000 nM and the IC50 [6] was over 100000 nM.

Compound `O=c1[nH]c2c([N+](=O)[O-])c(Cl)c(Cl)c([N+](=O)[O-])c2nc1Oc1ccccc1` has an IC50 [8] of 1540 nM.

With `CCCCCCCCC[n+]1cccc(-c2nc(-c3ccccc3)c3c(=O)n(CCCCCC)c4ccccc4n23)c1.[Br-]` the MBC [11] was 50 µg/mL, the MIC [11] was 0.97 µg/mL and the MBC [12] was 500 µg/mL. It also gave an MIC [12] of 500 µg/mL, an MBC [13] of 50 µg/mL and an MIC [13] of 0.97 µg/mL. It also gave an MBC [14] of over 500 µg/mL, an MIC [14] of over 500 µg/mL and an MBC [15] of over 500 µg/mL. It also gave an MIC [15] of over 500 µg/mL, an MBC [16] of 5 µg/mL and an MIC [16] of 0.97 µg/mL. The MBC [17] was 250 µg/mL and the MIC [17] was 250 µg/mL.

For `O=[N+]([O-])c1cc2nc(O)c(O)nc2nc1-n1ccnc1`, the Ki [18] was 10000 nM and the Ki [1] was 140 nM.

For `CCc1nc2cc(C(F)(F)F)ccc2[nH]c1=O`, the MIC [14] was 62.5 µg/mL (≈ 258 µM).

For `C[C@H]1Cc2cc(Cl)cc3[nH]c(=O)c(=O)n(c23)C1CC(=O)Nc1ccccc1` (stereo partly specified), the Ki [7] was 3.1 nM.

`COC(=O)c1sccc1S(=O)(=O)N1c2cc(Cl)ccc2NC(=O)C1C` (stereo unspecified) gave an IC50 [19] of 200 nM.

With `Nc1cc(Cl)cc2[nH]c(=O)c3nc(C(=O)O)nn3c12` the Ki [18] was 160 nM, the Ki [1] was 3200 nM and the IC50 [20] was 34100 nM.

`C[C@H]1Cc2cc(Br)cc3[nH]c(=O)c(=O)n(c23)C1CC(=O)Nc1ccccc1` (stereo partly specified) showed a Ki [7] of 3 nM.

`COC(=O)c1sc(Cl)cc1S(=O)(=O)N1c2cc(Cl)ccc2NC(=O)C1C` (stereo unspecified) gave an IC50 [19] of 70 nM.

Compound `NC(CNC(=O)C(=O)O)C(=O)O` (stereo unspecified) has an IC50 [1] of 1300 nM.

Compound `CCOC(=O)c1nc2cc(C(F)(F)F)ccc2[nH]c1=O` has an MIC [12] of 125 µg/mL (≈ 437 µM) and an MIC [16] of 250 µg/mL (≈ 873 µM).

`C=Cc1c(Br)cc2nc(O)c(O)nc2c1CN(C)CC(=O)O` gave an IC50 [1] of 1180 nM.

In the case of `O=C(O)c1ccccc1/C=C/c1ccc2[nH]c(=O)c(=O)[nH]c2c1`, the Ki [2] is reported as 2500 nM, the IC50 [3] is reported as 480 nM and the Ki [4] is reported as over 100000 nM. It also gave a Ki [10] of 1400 nM and an IC50 [6] of 24000 nM.

In the case of `O=c1[nH]c2ccc(-c3cccc(P(=O)(O)O)c3)cc2[nH]c1=O`, the Ki [2] is reported as over 100000 nM, the IC50 [3] is reported as over 100000 nM and the Ki [4] is reported as over 100000 nM. For the same compound, the Ki [10] was 12000 nM, the Ki [5] was over 100000 nM and the IC50 [6] was over 100000 nM.

For `O=C(Nc1ccc(C(=O)O)cc1)OCc1cn(-c2cc3nc(C(=O)O)c(O)nc3cc2C(F)(F)F)cn1`, the Ki [3] was 16 nM.

Work on `COC(=O)c1sccc1S(=O)(=O)N1c2cc(F)ccc2NC(=O)C1C` (stereo unspecified) yielded an IC50 [19] of 200 nM.

`CCc1c(Br)cc2nc(O)c(O)nc2c1CN(C)CC(=O)O` showed an IC50 [1] of 2320 nM.

`O=C(C[C@@H]1CCc2cc(Br)cc3[nH]c(=O)c(=O)n1c23)Nc1ccccc1` gave a Ki [7] of 0.96 nM.

`O=C(O)C[C@H]1CCc2cc(Br)cc3[nH]c(=O)c(=O)n1c23` showed a Ki [7] of 9.6 nM.

Compound `O=C(O)Cn1c(=O)c(Oc2ccc(Br)cc2F)nc2ccc(F)cc21` has an IC50 [8] of 6.44 nM and an inhibition [9] of 58.7%.

`CCOC(=O)c1nc2c(O)nc3cc([N+](=O)[O-])c(-n4ccc(C(=O)O)c4)cc3n2n1` showed a Ki [1] of 68 nM.

With `O=C(Nc1ccc(C(=O)O)cc1)OCc1cn(-c2cc3nc(C(=O)O)c(=O)[nH]c3cc2[N+](=O)[O-])cn1` the Ki [3] was 22 nM.

For `CCCCCCCCCn1c(=O)c2c(-c3ccccc3)nc(-c3ccc[n+](Cc4ccccc4)c3)n2c2ccccc21.[Cl-]`, the MBC [11] was 500 µg/mL, the MIC [11] was 3.9 µg/mL and the MBC [12] was over 500 µg/mL. The MIC [12] was over 500 µg/mL, the MBC [13] was over 500 µg/mL and the MIC [13] was 12.5 µg/mL. For the same compound, the MBC [14] was over 500 µg/mL, the MIC [14] was over 500 µg/mL and the MBC [15] was over 500 µg/mL. The MIC [15] was over 500 µg/mL, the MBC [16] was 50 µg/mL and the MIC [16] was 1.95 µg/mL. For the same compound, the MBC [17] was over 500 µg/mL and the MIC [17] was 500 µg/mL.

Compound `CCCCCCCCCn1c(=O)c2c(-c3ccccc3)nc(-c3ccc[n+](CCCCCCCCC)c3)n2c2ccccc21.[I-]` has an MBC [11] of over 500 µg/mL, an MIC [11] of over 500 µg/mL and an MBC [12] of over 500 µg/mL. The MIC [12] was over 500 µg/mL, the MBC [13] was over 500 µg/mL and the MIC [13] was 7.8 µg/mL. For the same compound, the MBC [14] was over 500 µg/mL, the MIC [14] was over 500 µg/mL and the MBC [15] was over 500 µg/mL. The MIC [15] was over 500 µg/mL, the MBC [16] was 500 µg/mL and the MIC [16] was 7.8 µg/mL. The MBC [17] was over 500 µg/mL and the MIC [17] was over 500 µg/mL.
